Assay results published in patent US20040127440A1, “Methods and compositions for control of bone formation via modulation of neuropeptide Y activity” (BAYLOR COLLEGE OF MEDICINE, priority 2000, published 2004).

System: wt mice
Test: Intracerebroventricular infusion of NPY in wt mice, histological/histomorphometric analysis of vertebrae
Format: in vivo
Conditions: 4 month-old wt mice, icv infusion 0.5 μl/hour (75 ng/hr) for 28 days, compared with PBS-treated mice
Experimental: Bone specimens were processed as described (Ducy et al., 1999, Genes Dev 13, 1025-1036).
Histological analyses were performed on undecalcified sections stained with the von Kossa reagent and counterstained with Kernechtrot (Amling et al., 1999, Endocrinology, 140: 4982-4987). Double labeling technique with calcein has been described (Amling et al., 1999, Endocrinology, 140: 4982-4987). Static and dynamic histomorphometric analyses were performed according to standard protocols (Parfitt et al., 1987, J Bone Min Res, 2:595-610) using the Osteomeasure Analysis System (Osteometrics, Atlanta). Statistical differences between groups (n=4 to 6) were assessed by Student's test.
Animals were anesthetized with avertin and placed on a stereotaxic instrument (Stoelting). The calvaria was exposed and a 0.7 mm hole was drilled upon bregma. A 28-gauge cannula (Brain infusion kit II, Alza) was implanted into the third ventricle according to the following coordinates: midline, −0.3 AP, 3 mm ventral (0 point bregma). The cannula was secure to the skull with cyanoacrylate, and attached with Tygon tubing to an osmotic pump (Alza) placed in the dorsal subcutaneous space of the animal. The rate of delivery was 0.5 μl/hour (75 ng/hr) of NPY (Sigma) or PBS for 28 days.
The issue of whether NPY binding to its receptor would affect bone mass was examined in this example. […]

neuropeptide Y [NPY] was tested, and the bone mass was “decrease” and the bone volume was “decrease”.
